# Experimental data published in PMC8869984, “Multifunctional Silver(I) Complexes with Metronidazole Drug Reveal Antimicrobial Properties and Antitumor Activity against Human Hepatoma and Colorectal Adenocarcinoma Cells” (Cancers, 2022).
# Experiments:
# [1] = tested on: HepG2 cells; test: NRU assay (lysosomal activity), 72 h exposure; type: cell-based, human; conditions: Figure 6
# Description: (§1) The human hepatoma (HepG2) and colorectal adenocarcinoma (Caco-2) cells were purchased from the American Type Culture Collection: ATCC HB-8065 and ATCC HTB-37, respectively. These cells were cultured in Minimum Essential Medium Eagle (MEME) (ATCC). The murine fibroblasts cell line (Balb/c 3T3 clone A31) (gift from the Department of Swine Diseases of the National Veterinary Research Institute in Pulawy) was cultured in Dulbecco’s Modified Eagle Medium (DMEM) (ATCC). The media were supplemented with 10% BCS (Balb/c 3T3), 10% FBS (HepG2), 20% FBS (Caco-2), 1% L-glutamine, 1% antibiotic solution. The cells were maintained in 75 cm^2 cell culture flasks (NUNC) in a humidified incubator at 37 °C in an atmosphere of 5% CO2. The medium was refreshed every two or three days, and the cells were trypsinized by 0.25% trypsin–0.02% EDTA after reaching 70–80% confluence. Single cell suspensions were prepared and adjusted to a density of 2 × 10^5 cell/mL^−1 (HepG2), 1 × 10^5 cell/mL^−1 (Caco-2) and 5 × 10^4 cell/mL^−1 (Balb/c 3T3). The cell suspension was transferred to 96-well plates (100 µL/well) and incubated for 24 h before the exposure to the studied compounds. Stock solutions of ligands and metal complexes were prepared in sterile water and diluted with culture medium to obtain a concentration range from 0.1 to 10 µM. The final concentration of sterile water was 0.1% in the medium. […] As a negative control, cultured cells were grown in the absence of studied compounds. Each concentration was tested in six replicates in three independent experiments. Cytotoxicity was assessed after 72 h of exposure of the cells to compounds. The medium was not changed during the incubation time.
# This method is based on staining living cells with neutral red, which readily diffuses through the plasma membrane and accumulates in lysosomes. […] After 10 min of shaking, the absorbance of the dissolved NR was measured using a Synergy HTX multi-mode reader (BioTek® Instruments Inc., Winooski, VT, USA) at 540 nm using a blank as a reference. Cytotoxicity was expressed as a percentage of the negative control. […]
# [2] = tested on: E. faecalis ATCC 29212; test: micro-dilution broth method (MIC, MBC); type: cell-based, Enterococcus faecalis
# [3] = tested on: C. perfringens ATCC 13124; test: microbe, parasite or virus in culture; type: cell-based, Clostridium perfringens
# [4] = tested on: V. parvula ATCC 10790; test: micro-dilution broth method (MIC, MBC); type: cell-based, Veillonella parvula
# [5] = tested on: K. pneumoniae ATCC 13883; test: micro-dilution broth method (MIC, MBC); type: cell-based, Klebsiella pneumoniae
# [6] = tested on: HepG2 cells; test: TPC assay (total protein content), 72 h exposure; type: cell-based, human
# Description: as §1
# This assay is based upon staining the total cellular protein (proliferation). After the incubation, the medium containing the drug was removed, and 100 µL Coomassie brilliant blue R-250 dye was added to each well. The plate was shaken for 10 min. Then, the stain was removed and the cells were rinsed twice with 100 µL of washing solution (glacial acetic acid/ethanol/water, 5:10:85, v:v:v). After that, 100 µL of the desorbing solution (1 M potassium acetate) was added, and plates were shaken again for 10 min. The absorbance was measured at 595 nm in a microplate reader Synergy HTX multi-mode reader (BioTek® Instruments Inc., Winooski, VT, USA) using a blank as a reference. Cytotoxicity was expressed as a percentage of the negative control.
# The study was performed in three independent experiments. The obtained results are presented as mean values ± SD (standard deviation). The assessment of the cytotoxicity data used a one-way analysis of variance (ANOVA) followed by Dunnett’s post hoc test, which was applied to determine significance relative to the negative control.
# [7] = tested on: P. intermedia ATCC 25611; test: micro-dilution broth method (MIC, MBC); type: cell-based
# [8] = tested on: HepG2 cells; test: MTT assay (mitochondrial activity), 72 h exposure; type: cell-based, human; conditions: Figure 6
# Description: as §1
# The metabolic activity of living cells was assessed by the measurement of the activity of dehydrogenases. […] The plate was shaken for 15 min at room temperature and transferred to a microplate reader Synergy HTX multi-mode reader (BioTek® Instruments Inc., Winooski, VT, USA) to measure the absorbance at 570 nm, using a blank as a reference. Cytotoxicity was expressed as a percentage of the negative control. […]
# [9] = tested on: B. subtilis ATCC 6633; test: micro-dilution broth method (MIC, MBC); type: cell-based, Bacillus subtilis
# [10] = tested on: P. aeruginosa ATCC 9027; test: micro-dilution broth method (MIC, MBC); type: cell-based, Pseudomonas aeruginosa
# [11] = tested on: S. aureus ATCC 25923; test: micro-dilution broth method (MIC, MBC); type: cell-based, Staphylococcus aureus
# [12] = tested on: S. epidermidis ATCC 12228; test: micro-dilution broth method (MIC, MBC); type: cell-based, Staphylococcus epidermidis
# [13] = E. faecalis ATCC 29212, value in brackets
# [14] = C. perfringens ATCC 13124, value in brackets
# [15] = V. parvula ATCC 10790, value in brackets
# [16] = K. pneumoniae ATCC 13883, value in brackets
# [17] = P. intermedia ATCC 25611, value in brackets
# [18] = B. subtilis ATCC 6633, value in brackets
# [19] = P. aeruginosa ATCC 9027, value in brackets
# [20] = S. aureus ATCC 25923, value in brackets
# [21] = S. epidermidis ATCC 12228, value in brackets
Structure (SMILES),MBC ([2]; E. faecalis ATCC 29212) [mg/L],MIC ([2]; E. faecalis ATCC 29212) [mg/L],"MBC [2, 13] [µM/mL]","MIC [2, 13] [µM/mL]",MBC ([3]; C. perfringens ATCC 13124) [mg/L],MIC ([3]; C. perfringens ATCC 13124) [mg/L],"MBC [3, 14] [µM/mL]","MIC [3, 14] [µM/mL]",MBC ([4]; V. parvula ATCC 10790) [mg/L],MIC ([4]; V. parvula ATCC 10790) [mg/L],"MBC [4, 15] [µM/mL]","MIC [4, 15] [µM/mL]",MBC ([5]; K. pneumoniae ATCC 13883) [mg/L],MIC ([5]; K. pneumoniae ATCC 13883) [mg/L],"MBC [5, 16] [µM/mL]","MIC [5, 16] [µM/mL]",MBC ([7]; P. intermedia ATCC 25611) [mg/L],MIC ([7]; P. intermedia ATCC 25611) [mg/L],"MBC [7, 17] [µM/mL]","MIC [7, 17] [µM/mL]",further results
Cc1ncc([N+](=O)[O-])n1CCO.Cc1ncc([N+](=O)[O-])n1CCO.Cc1ncc([N+](=O)[O-])n1CCO.Cc1ncc([N+](=O)[O-])n1CCO.O=S(=O)([O-])[O-].[Ag+].[Ag+] [[Ag(MTZ)2]2SO4],62.5,31.3,0.06,0.03,3.9,1.95,0.004,0.002,3.9,3.9,0.004,0.004,31.3,15.6,0.03,0.014,15.6,0.98,0.014,0.0009,"lowest concentration with significant (p ≤ 0.05) effect [1]: 5.0 µM; lowest concentration with significant (p ≤ 0.05) effect ([6]; Figure 6): 5.0 µM; lowest concentration with significant (p ≤ 0.05) effect [8]: 5.0 µM; MBC ([9]; B. subtilis ATCC 6633): 15.6 mg/L; MIC ([9]; B. subtilis ATCC 6633): 15.6 mg/L; MBC [9, 18]: 0.014 µM/mL; MIC [9, 18]: 0.014 µM/mL; MBC ([10]; P. aeruginosa ATCC 9027): 15.6 mg/L; MIC ([10]; P. aeruginosa ATCC 9027): 7.8 mg/L; MBC [10, 19]: 0.014 µM/mL; MIC [10, 19]: 0.008 µM/mL; MBC ([11]; S. aureus ATCC 25923): 15.6 mg/L; MIC ([11]; S. aureus ATCC 25923): 15.6 mg/L; MBC [11, 20]: 0.014 µM/mL; MIC [11, 20]: 0.014 µM/mL; MBC ([12]; S. epidermidis ATCC 12228): 15.6 mg/L; MIC ([12]; S. epidermidis ATCC 12228): 7.8 mg/L; MBC [12, 21]: 0.014 µM/mL; MIC [12, 21]: 0.007 µM/mL"
"O=[N+]([O-])[O-].[Ag+] [AgNO3, Silver nitrate]",31.3,15.6,0.185,0.09,62.5,62.5,0.37,0.37,15.6,7.8,0.09,0.049,7.8,7.8,0.049,0.049,0.49,0.49,0.003,0.003,"IC50 ([6]; mean ± SD, n = 3): > 10 µM; MBC ([9]; B. subtilis ATCC 6633): 15.6 mg/L; MIC ([9]; B. subtilis ATCC 6633): 15.6 mg/L; MBC [9, 18]: 0.09 µM/mL; MIC [9, 18]: 0.09 µM/mL; MBC ([10]; P. aeruginosa ATCC 9027): 3.9 mg/L; MIC ([10]; P. aeruginosa ATCC 9027): 3.9 mg/L; MBC [10, 19]: 0.025 µM/mL; MIC [10, 19]: 0.025 µM/mL; MBC ([11]; S. aureus ATCC 25923): 31.3 mg/L; MIC ([11]; S. aureus ATCC 25923): 7.8 mg/L; MBC [11, 20]: 0.185 µM/mL; MIC [11, 20]: 0.049 µM/mL; MBC ([12]; S. epidermidis ATCC 12228): 15.6 mg/L; MIC ([12]; S. epidermidis ATCC 12228): 3.9 mg/L; MBC [12, 21]: 0.09 µM/mL; MIC [12, 21]: 0.025 µM/mL"
